Tests used:
[1] = Calculation of Eu luminescence parameters (radiative lifetime, rate constants, efficiencies); assay type: physicochemical
Protocol: In this equation, the ηISC ηET term is termed the sensitization efficiency, ηsens (ηsens=ηISC ηET). All the luminescence parameters τR (the pure radiative luminescence lifetime), kR and knR (the radiative and non-radiative constant rate) can be deduced. These parameters were calculated for five of the octadentate complexes and the model complex that present only one species in solution at pH=7.4 and are reported in Table 6.

[2] = UV/visible absorption spectroscopy of Eu(III) complexes in TRIS buffer; assay type: physicochemical
Description: Extinction Coefficient. A series of solutions of varied concentrations will be prepared from the solids based on mass and purity. The absorbance of each of these solutions at both 340 nm and at the appropriate acceptor wavelength will be measured and plotted according to Beer's Law (A=εcL where A is absorbance, ε is the extinction coefficient in M^−1 cm^−1, c is concentration, and L is path length in cm) with the fitted linear regression slope equal to […] on a plot of A as a function of C.
Each of the spectra have absorption maxima around 335-340 nm (FIG. 2). Those bands are composed of two electronic transitions; at higher energy, a purely π-π* transition and, at slightly lower energy (around ca. 320 nm), a π-π* transition with some n-π* character, as evidenced previously from TD-DFT calculations. […] This interaction gives maxima blue-shifting from 341 nm for [Eu(H(2,2)-1,2-HOPO)]^0 to 334 nm for [Eu(H(17O5,2)-1,2-HOPO)]^0 (as low as 332 nm for)[Eu(5LIN^Me-1,2HOPO)2]^0).

[3] = Stability titration (pEu) by competitive batch titration using DTPA; assay type: physicochemical
Protocol: (§1) Stability Titrations. The general procedure used to determine the pEu values of ligands was adapted from an already described study using Gd and are similar to that already reported for other complexes. Different volumes of a standardized DTPA stock solution were added to solutions of constant ligand, metal, and electrolyte concentrations. Concentrations of complexed ligand in each solution were determined by subtracting the remaining luminescence intensity after addition of DTPA to the initial luminescence intensity at identical pH and those concentrations were used as references for the analysis. Stability of compounds towards mM concentrations of EDTA and divalent cations will be assessed by incubation of the proposed molecules at nM concentration at room temperature in aqueous solutions of test ions. Time Resolved Fluorescent signal will be assessed at the outset of experiment and monitored over a minimum of 24 hours to determine signal change.

[4] = Luminescence lifetimes (TRIS buffer, deuterated water, 77K) and inner sphere water number q
Protocol: Fluorescent decay signals can be acquired using an IBH DataStation Hub photon counting module and data analysis performed using the commercially available DAS 6 decay analysis software package from HORIBA Jobin Yvon IBH. Goodness of fit will be assessed by minimizing the reduced chi squared function, χ2, and a visual inspection of the weighted residuals. Each trace will use at least 10,000 points and the reported lifetime values result from at least three independent measurements.
In addition to the steady state emission spectra, the luminescence quantum yields and luminescence lifetimes of the Eu(III) complexes were also measured in aqueous solution with 0.1 M TRIS buffer pH=7.4 and in deuterated solution to estimate the number of inner sphere water molecule (i.e. q) using the improved Horrock's equations.
Luminescence lifetimes were also determined at 77K, in a solid matrix (Table 5), which have allowed us to determine whether back energy transfer between the donor triplet excited state and the acceptor manifold excited state of the lanthanide is present, or alternately whether quenching via low lying LMCT state occurs.

[5] = Stability testing in concentrated solutions of divalent cations and EDTA; assay type: physicochemical; details: over 24 hrs
Protocol: as §1
Although these conditions represent concentrations that are in excess of those typically encountered in routine commercial use, they are a benchmark used in the high-throughput screening industry to evaluate these types of molecules. For comparison, stability testing of the commercialized Lumi4-Tb compound is shown (FIG. 3, top) and represents the stability benchmark for these types of molecules.

[6] = Triplet excited state energy from phosphorescence of Gd complexes at 77K; assay type: physicochemical; details: solid matrix (methanol/ethanol 1/4), using the Gd complexes
Protocol: Estimation of the energies of the ligand based triplet excited state were determined using the Gd(III) complexes. Gadolinium was chosen because it is a 4f^7 lanthanide cation having a similar 4f electronic configuration and size as the europium cation (4f^6), but lacking an accessible metal based low energy electronic excited state. At room temperature, only a broad weak emission centered between 380-400 nm can be seen for the Gd(III) complexes. […] At 77K, in solid matrix, an emission band at approx. 500 nm can be seen (FIG. 8). This emission, red-shifted compared to the singlet excited state, can be assigned to phosphorescence from the triplet excited state, lower in energy than the singlet excited state observed at room temperature. Selective time gated phosphorescence spectra (delay 0.1 ms) of the gadolinium complexes at 77K are depicted in FIG. 8.

[7] = Luminescence quantum yield, emission and brightness in aqueous 0.1 M TRIS buffer; assay type: physicochemical
Protocol: Quantum Yield. Quantum yield will be measured using established methods. Fluorescence quantum yield Q are measured in diluted solution with an optical density lower than 0.1 using the following equation Qx/Qr=[Ar(λr)/Ax(λx)][nx^2/nr^2][Dx/Dr] were A is the absorbance at the excitation wavelength (λ), n the refractive index and D the integrated luminescence intensity. Subscripts “r” and “x” stand for reference and sample, respectively. References will be a quinine bisulfate in 1N sulfuric acid in aqueous solution (Qt=0.546)^1 and Ru(bpy)3 2C1 complexes in water solution (Qr=0.028)^2 for all complexes. A plot of integrated emission intensity (i.e. Dr) versus absorbance (i.e. Ar(λr)) yields a linear plot with a slope which can be equated to the reference quantum yield Qr. By analogy, for the unknown sample, a plot of integrated emission intensity (i.e. Dx) versus absorbance (i.e. Ax(λx)) yields a linear plot and Qx can then be evaluated. A minimum of at least two independent measurements will be averaged to derive a reliable value.

## O=C(NCCN(CCNC(=O)c1cccc(=O)n1O)CCOCCOCCOCCN(CCNC(=O)c1cccc(=O)n1O)CCNC(=O)c1cccc(=O)n1O)c1cccc(=O)n1O [Eu(H11-3)]
[1]
  sensitization process efficiency: 40.2%
[1]; efficiency of metal centred luminescence
  η^Eu: 0.411
[1]; non-radiative rate constant
  knr: 882 s⁻¹
[1]; pure radiative luminescence lifetime, aqueous TRIS pH = 7.4
  τrad: 1630 μs
[1]; radiative rate constant
  kr: 615 s⁻¹
[1]; sensitization efficiency
  η^sens: 0.402
[2]; TRIS buffer pH = 7.4
  ε: 15,070 M^−1 · cm^−1
  λ^maxabs: 334 nm
[2]; absorption maximum
  λ: 334 nm
[2]; extinction coefficient, in M-1·cm-1
  ε: 15,070
[3]; competitive batch titration using DTPA in 0.1M TRIS pH = 7.4 and 0.1M KCl
  pEu: 20.4
[3]; in words
  pEu value as compared to DTPA: increased
[4]; aqueous TRIS pH = 7.4
  τ: 668 μs
[4]; deuterated solution, first component
  τ^D: 888 μs
[4]; deuterated water, first component
  τ^D: 888 μs
[4]; first (longer) component
  τ: 668 μs
[4]; inner sphere water molecules, improved Horrock's equations, first species
  q: 0.1
[4]; solid matrix at 77K (methanol/ethanol 1/4), first component
  τ (77K): 765 μs
[5]
  signal change in concentrated solutions of divalent cations and EDTA: significant signal loss
[6]
  T0-0 (triplet excited state energy): 22,120 cm^−1
[7]; 0.1M TRIS buffer pH = 7.4
  øTot: 0.165
[7]; aqueous TRIS pH = 7.4, complexes with only one species
  ϕTot: 0.165
[7]; aqueous medium
  quantum yield in aqueous medium: 17%
[7]; aqueous quantum yield
  ϕTot: 0.165
[7]; at maximum absorption, product of quantum yield and molar absorption coefficient, 0.1 M TRIS pH = 7.4
  Brightness: 2485 M⁻¹ cm⁻¹
[7]; related to inner-sphere coordinated water
  overall quantum yield (in words): comparatively high quantum yields

From patent US10352938B2, “Macrocyclic HOPO chelators” (LUMIPHORE, INC., priority 2009, dated 2019)
